Laboratory results from US6677435B2, “Prodrug activation using catalytic antibodies” (The Scripps Research Institute, priority 1999, dated 2004).

Tests used:
antibody 38C2 = experiment: Kinetic analysis of antibody 38C2-catalyzed prodrug activation (RP-HPLC); format: biochemical, mouse
Protocol: All antibody reactions were carried out in PBS (pH 7.4) at 37° C. in microfuge tubes. […] Kinetic data were derived from Lineweaver-Burk plots. […] Topoisomerase I and II inhibitor doxorubicin was chosen as a model compound for this prodrug activation concept because its structure activity relationship is well characterized and it has been used previously in ADEPT systems (Niculescu-Duvaz, I. & Springer, C. J. (1997) Adv. Drug Delivery Rev. 26, 151-172). Doxorubicin is a drug approved for cancer therapy that suffers from misdirected toxicity. […] The tertiary aldol was chosen as the first reaction since no known natural enzyme catalyzes this particular type of retro-aldol reaction. […] Typically 38C2 is highly enantioselective, however, under the conditions studied, the reaction proceeded to completion indicative of loss of enantioselectivity and complete activation of the prodrug. According to a pharmacokinetic analysis of ADEPT systems, low kcat values combined with high Km values are expected to increase the tumor to blood ratio of the free drug, leading to a reduction in peripheral toxicity (Yuan, J., Baxter, L. T. & Jain, R. K. (1991). Cancer Res. 51, 3119-3130). […] To this end, both the masking linker and catalytic antibody are being optimized.

[1] = system: HT29 human colon carcinoma cells; experiment: Cell growth inhibition assay (lactate dehydrogenase colour reaction), HT29; format: cell-based
Text: (§1) Human colon carcinoma cell lines HT29 and LIM1215 were kindly provided by Dr. Lloyd J. Old from The Ludwig Institute for Cancer Research in New York. Human prostate cancer cell line LNCap was purchased from American Type Culture Collection (Manassas, Va.). All cell lines were maintained in RPMI 1640 medium (Hyclone, Logan, Utah) supplemented with 10% fetal bovine serum (Life Technologies, Gaithersburg, Md.) and antibiotic-antimycotic reagents (Life Technologies) containing penicillin, streptomycin, and amphotericin B. The cell lines were cultivated in culture flasks at 37° C. in a humidifying incubator in an atmosphere of 5% CO2.
(§2) Stock solutions of 5 mM doxorubicin and prodoxorubicin in DMF, respectively, were stored at 4° C. For cell growth inhibition assays, 250-μM dilutions of doxorubicin and prodoxorubicin in PBS (pH 7.4) were freshly prepared from the 5 mM stock solutions and further diluted in cell culture medium to yield 10 nM to 25 μM solutions. Methyl vinyl ketone was purchased from Aldrich (Milwaukee, Wis.). Stock solutions of 1 mM camptothecin and procamptothecin in DMF, respectively, were stored at 4° C. […] Prior to the quantitative cell growth inhibition assay, the cell density was qualitatively analyzed by microscopy. This visual evaluation always matched the result of the quantitative analysis. […] For quantification, 50 μl aliquots were transferred to another 96-well plate and the color was read at 490 nm in an ELISA plate reader. The absorbance data were converted to percent cell density with the untreated controls being 100% and the background of the color reaction being 0%.
(§3) The antiproliferative effects of drug and prodrug were monitored by quantifying the cell growth in the presence of a range of concentrations of doxorubicin and prodoxorubicin, respectively. Three different human cancer cell lines were evaluated, human colon carcinoma cell lines HT29 and LIM1215 and human prostate cancer cell line LNCap. […]

[2] = system: LIM1215 human colon carcinoma cells; experiment: Cell growth inhibition assay (lactate dehydrogenase colour reaction), LIM1215; format: cell-based; conditions: for IC50: Homo sapiens, LIM1215
Protocol: Stock solutions of 5 mM doxorubicin and prodoxorubicin in DMF, respectively, were stored at 4° C. For cell growth inhibition assays, 250-μM dilutions of doxorubicin and prodoxorubicin in PBS (pH 7.4) were freshly prepared from the 5 mM stock solutions and further diluted in cell culture medium to yield 10 nM to 25 μM solutions. […] Stock solutions of 1 mM camptothecin and procamptothecin in DMF, respectively, were stored at 4° C. For cell growth inhibition assays, 100-μM dilutions of camptothecin and procamptothecin in PBS (pH 7.4) were freshly prepared from the 1 mM stock solutions and further diluted in cell culture medium to yield 10 nM to 1 μM solutions. Cells grown in culture flasks were trypsinized, washed with PBS, resuspended in cell culture medium, and reduced to a single cell suspension by passing through a 18 G needle. After counting, the cells were plated at a density of 5×10^3 (HT29) or 1×10^4 (LIM1215, LNCap) cells/well in 96-well tissue culture plates and maintained in culture as described above. Drugs were diluted to a final concentration range of 10 nM to 25 μM in 100 μl 10% fetal bovine serum in RPMI 1640 and added to the cells 24 hours after plating. […] After drug addition, the cells were maintained at 37° C. in 5% CO2for 3 to 5 days (72 to 120 hours). Prior to the quantitative cell growth inhibition assay, the cell density was qualitatively analyzed by microscopy. […] The cells were then washed with 150 μl PBS (pH 7.5) and incubated with 100 μl of 9% (v/v) Triton-X 100 (Sigma, St. Louis, Mo.) for 45 minutes at 37° C. The supernatant was then transferred to a 96-well V-shaped plate and centrifuged to remove cell debris. […] For quantification, 50 μl aliquots were transferred to another 96-well plate and the color was read at 490 nm in an ELISA plate reader. The absorbance data were converted to percent cell density with the untreated controls being 100% and the background of the color reaction being 0%.

[3] = system: human prostate cancer cell line LNCap; experiment: Cell growth inhibition assay (lactate dehydrogenase colour reaction), LNCap; format: cell-based
Text: as §1, §2, §3

[4] = HT-29, 72 h after drug addition, 50% decrease in cell density vs untreated control
[5] = 72 h after drug addition, 50% decrease in cell density vs untreated control

Row | SMILES | IC50 [1, 4] [µM] | IC50 [2, 5] [µM] | IC50 [3, 5] [µM] | other results
1 | CC(=O)CC(C)=O [2,4-pentanedione] | – | – | – | inhibition of 38C2 catalysis of prodoxorubicin cleavage (antibody 38C2): completely inhibited
2 | CC[C@@]1(O)C(=O)OCc2c1cc1n(c2=O)Cc2cc3ccccc3nc2-1 [camptothecin] | 0.1 to 0.25 | 0.1 to 0.25 | 0.01 to 0.025 | –
3 | COc1cccc2c1C(=O)c1c(O)c3c(c(O)c1C2=O)C[C@@](O)(C(=O)CO)C[C@@H]3O[C@H]1C[C@H](N)[C@H](O)[C@H](C)O1 [doxorubicin] | 3 | 0.4 | 0.4 | IC50 ([1]; HT-29, 120 h after drug addition): 2.5 µM; IC50 ([2]; 120 h after drug addition): 0.4 µM; IC50 ([3]; 120 h after drug addition): 0.2 µM
4 | C=CC(C)=O [methyl vinyl ketone] | – | – | – | cell growth inhibition when applied alone ([2]; LIM1215 cells, 120 h, without combination partner): no inhibition of cell growth
